Measurements taken from PubChem BioAssay AID2060502 (Molecular Pharmacology Branch, DTP, NCI, 2025).

Tested on: 885724-159-R-J1-PDC complex spheroid viability
Test: Anticancer human tumor 885724-159-R-J1-PDC patient-derived pancreatic adenocarcinoma cell line growth inhibition [GQUAD]
Settings: for IC50: curve of first compound; for viability, T/C: stronger effect = lower value
Method in brief: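 Multi-cell-type spheroids of tumor cells with HUVEC and mesenchymal stem cells, treated with drug combinations. Concentrations descend in half-log steps from near clinical Cmax, or from 10 microM where Cmax is unknown; viability read-out.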

[1] = second compound 0.0316 µM, first compound 0.0316 µM
[2] = second compound 0.0316 µM, first compound 0.316 µM
[3] = second compound 0.1 µM, first compound 0.0316 µM
[4] = second compound 0.1 µM, first compound 0.316 µM
[5] = second compound 0.316 µM, first compound 0.0316 µM
[6] = second compound 0.316 µM, first compound 0.316 µM
[7] = second compound 1 µM, first compound 0.0316 µM
[8] = second compound 1 µM, first compound 0.316 µM
[9] = second compound 3.16 µM, first compound 0.0316 µM
[10] = second compound 3.16 µM, first compound 0.316 µM
[11] = second compound 10 µM, first compound 0.0316 µM
[12] = second compound 10 µM, first compound 0.316 µM
[13] = second compound 0.0316 µM, first compound 0.1 µM
[14] = second compound 0.0316 µM, first compound 1 µM
[15] = second compound 0.0316 µM, first compound 3.16 µM
[16] = second compound 0.0316 µM, first compound 10 µM
[17] = second compound 0.1 µM, first compound 0.1 µM
[18] = second compound 0.1 µM, first compound 1 µM
[19] = second compound 0.1 µM, first compound 3.16 µM
[20] = second compound 0.1 µM, first compound 10 µM
[21] = second compound 0.316 µM, first compound 0.1 µM
[22] = second compound 0.316 µM, first compound 1 µM
[23] = second compound 0.316 µM, first compound 3.16 µM
[24] = second compound 0.316 µM, first compound 10 µM
[25] = second compound 1 µM, first compound 0.1 µM
[26] = second compound 1 µM, first compound 1 µM
[27] = second compound 1 µM, first compound 3.16 µM
[28] = second compound 1 µM, first compound 10 µM
[29] = second compound 3.16 µM, first compound 0.1 µM
[30] = second compound 3.16 µM, first compound 1 µM
[31] = second compound 3.16 µM, first compound 3.16 µM
[32] = second compound 3.16 µM, first compound 10 µM
[33] = second compound 10 µM, first compound 0.1 µM
[34] = second compound 10 µM, first compound 1 µM
[35] = second compound 10 µM, first compound 3.16 µM
[36] = second compound 10 µM, first compound 10 µM
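Further: spheroids exposed to agents for seven days before readout.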
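Wherever viability, T/C is given: percent of vehicle control viability where 100% = DMSO wells.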

`CC[C@@]1(O)C(=O)OCc2c1cc1n(c2=O)Cc2cc3c(CN(C)C)c(O)ccc3nc2-1` + CN(C)c1ccc(Nc2c3ccc(NC(=O)CCN4CCCC4)cc3nc3cc(NC(=O)CCN4CCCC4)ccc23)cc1 was tested, and the IC50 (second compound 0.0316 µM) was > 0.316 µM, the IC50 (second compound 0.1 µM) was > 0.316 µM and the IC50 (second compound 0.316 µM) was > 0.316 µM. For the same molecule, the IC50 (second compound 1 µM) was > 0.316 µM, the IC50 (second compound 3.16 µM) was > 0.316 µM and the IC50 (second compound 10 µM) was > 0.316 µM. For the same molecule, the viability, T/C (second compound 0.0316 µM, first compound 0.000999 µM) was 100%, the viability, T/C (second compound 0.0316 µM, first compound 0.00316 µM) was 93.2% and the viability, T/C (second compound 0.0316 µM, first compound 0.00999 µM) was 97.2%. It also gave a viability, T/C [1] of 93.6%, a viability, T/C (second compound 0.0316 µM, first compound 0.0999 µM) of 76.7% and a viability, T/C [2] of 67.7%. For the same molecule, the viability, T/C (second compound 0.1 µM, first compound 0.000999 µM) was 95.9%, the viability, T/C (second compound 0.1 µM, first compound 0.00316 µM) was 98.6% and the viability, T/C (second compound 0.1 µM, first compound 0.00999 µM) was 100%. It also gave a viability, T/C [3] of 84.2%, a viability, T/C (second compound 0.1 µM, first compound 0.0999 µM) of 78% and a viability, T/C [4] of 67.2%. The viability, T/C (second compound 0.316 µM, first compound 0.000999 µM) was 78.5%, the viability, T/C (second compound 0.316 µM, first compound 0.00316 µM) was 86.1% and the viability, T/C (second compound 0.316 µM, first compound 0.00999 µM) was 83.2%. The viability, T/C [5] was 82.1%, the viability, T/C (second compound 0.316 µM, first compound 0.0999 µM) was 89.6% and the viability, T/C [6] was 63.9%. For the same molecule, the viability, T/C (second compound 1 µM, first compound 0.000999 µM) was 76.4%, the viability, T/C (second compound 1 µM, first compound 0.00316 µM) was 82.3% and the viability, T/C (second compound 1 µM, first compound 0.00999 µM) was 76.9%. The viability, T/C [7] was 65.4%, the viability, T/C (second compound 1 µM, first compound 0.0999 µM) was 87.2% and the viability, T/C [8] was 62.4%. The viability, T/C (second compound 3.16 µM, first compound 0.000999 µM) was 81.3%, the viability, T/C (second compound 3.16 µM, first compound 0.00316 µM) was 70.5% and the viability, T/C (second compound 3.16 µM, first compound 0.00999 µM) was 74.8%. For the same molecule, the viability, T/C [9] was 66.3%, the viability, T/C (second compound 3.16 µM, first compound 0.0999 µM) was 67.9% and the viability, T/C [10] was 51.6%. The viability, T/C (second compound 10 µM, first compound 0.000999 µM) was 89.7%, the viability, T/C (second compound 10 µM, first compound 0.00316 µM) was 87.5% and the viability, T/C (second compound 10 µM, first compound 0.00999 µM) was 77.3%. For the same molecule, the viability, T/C [11] was 79.8%, the viability, T/C (second compound 10 µM, first compound 0.0999 µM) was 73.7% and the viability, T/C [12] was 52.4%.

For `COc1ncnc(C2CC2)c1-c1ncc2cnn(Cc3ccc(-c4nc(C(F)(F)F)cn4C(C)C)cc3)c2n1` + Cc1[nH]c2ccc(F)cc2c1-c1nc2c3cccnc3c3ncccc3c2[nH]1, the IC50 (second compound 0.0316 µM) was > 10 µM, the IC50 (second compound 0.1 µM) was > 10 µM and the IC50 (second compound 0.316 µM) was > 10 µM. For the same molecule, the IC50 (second compound 1 µM) was > 10 µM, the IC50 (second compound 3.16 µM) was < 0.0316 µM and the IC50 (second compound 10 µM) was > 10 µM. For the same molecule, the viability, T/C [1] was 85.5%, the viability, T/C [13] was 91.4% and the viability, T/C [2] was 93.7%. For the same molecule, the viability, T/C [14] was 81.8%, the viability, T/C [15] was 89.9% and the viability, T/C [16] was 94%. For the same molecule, the viability, T/C [3] was 101%, the viability, T/C [17] was 90% and the viability, T/C [4] was 86.3%. For the same molecule, the viability, T/C [18] was 90.4%, the viability, T/C [19] was 91.3% and the viability, T/C [20] was 111%. For the same molecule, the viability, T/C [5] was 96.7%, the viability, T/C [21] was 81.5% and the viability, T/C [6] was 76.1%. The viability, T/C [22] was 72.3%, the viability, T/C [23] was 88% and the viability, T/C [24] was 82.3%. For the same molecule, the viability, T/C [7] was 70.3%, the viability, T/C [25] was 65.8% and the viability, T/C [8] was 62.8%. The viability, T/C [26] was 56.3%, the viability, T/C [27] was 70.5% and the viability, T/C [28] was 67.8%. For the same molecule, the viability, T/C [9] was 23.7%, the viability, T/C [29] was 12.7% and the viability, T/C [10] was 10.7%. The viability, T/C [30] was 8.78%, the viability, T/C [31] was 11.8% and the viability, T/C [32] was 12.8%. It also gave a viability, T/C [11] of 69.6%, a viability, T/C [33] of 66% and a viability, T/C [12] of 63.7%. For the same molecule, the viability, T/C [34] was 72.1%, the viability, T/C [35] was 69.3% and the viability, T/C [36] was 68.3%.

Work on `CC(C)(O)C1CCC(Nc2ccc3ncc(-c4cccc(C(F)(F)F)c4)n3n2)CC1` (stereo unspecified) + Cc1cnc(CNC(=O)c2c(=O)c3ccc(N4CCCN(C)CC4)nc3n3c2sc2ccccc23)cn1 yielded an IC50 (second compound 0.0316 µM) of 3.14 µM, an IC50 (second compound 0.1 µM) of 4.18 µM and an IC50 (second compound 0.316 µM) of 3.88 µM. It also gave an IC50 (second compound 1 µM) of 2.61 µM, an IC50 (second compound 3.16 µM) of 1.19 µM and an IC50 (second compound 10 µM) of 1.04 µM. It also gave a viability, T/C [1] of 112%, a viability, T/C [13] of 86.4% and a viability, T/C [2] of 93.2%. It also gave a viability, T/C [14] of 70.3%, a viability, T/C [15] of 44.2% and a viability, T/C [16] of 40.6%. It also gave a viability, T/C [3] of 108%, a viability, T/C [17] of 103% and a viability, T/C [4] of 91.2%. For the same molecule, the viability, T/C [18] was 79.1%, the viability, T/C [19] was 45.5% and the viability, T/C [20] was 48.1%. It also gave a viability, T/C [5] of 94%, a viability, T/C [21] of 89.9% and a viability, T/C [6] of 79.4%. It also gave a viability, T/C [22] of 71.1%, a viability, T/C [23] of 50.4% and a viability, T/C [24] of 39.9%. It also gave a viability, T/C [7] of 88.5%, a viability, T/C [25] of 73.2% and a viability, T/C [8] of 77.2%. It also gave a viability, T/C [26] of 67%, a viability, T/C [27] of 45.2% and a viability, T/C [28] of 36.7%. For the same molecule, the viability, T/C [9] was 73.8%, the viability, T/C [29] was 65.6% and the viability, T/C [10] was 64.9%. The viability, T/C [30] was 55%, the viability, T/C [31] was 28.4% and the viability, T/C [32] was 11.7%. For the same molecule, the viability, T/C [11] was 62%, the viability, T/C [33] was 69.4% and the viability, T/C [12] was 62.5%. The viability, T/C [34] was 51.8%, the viability, T/C [35] was 9.65% and the viability, T/C [36] was 0.29%.
